Results published in patent EP0386667B1, “6-Amino-6-desoxyfumagillols, production and use thereof” (Takeda Chemical Industries, Ltd., priority 1989, dated 1990).
≈ marks a conversion by molar mass, not a printed value.

Columns and labels:
[1] = tested on: bFGF-induced angiogenesis; test: angiogenesis inhibitory activity by the rat cornea micropocket method; type: in vivo, Sprague-Dawley rats; settings: number of rats on which angiogenesis inhibitory activity was observed relative to the number of rats tested, sample pellet 20 µg beside bFGF (250 ng) pellet in cornea, observed after 10 days; for responders at 20 µg/pellet: Rattus norvegicus, 240 h, read-out: Inhibitory Rate (converted)
Description: The object compounds (I) obtained in the Working Examples given below were evaluated for angiogenesis inhibitory activity by the rat cornea micropocket method.
Essentially the same method of Gimbrone et al. [J. National Cancer Institute, 52, 413-419 (1974)] was followed. Thus, adult male Sprague-Dawley rats 11 to 16 week old) were anesthetized with nembutal and locally anesthetized by instillation of xylocaine eyedrops onto the eyeball. The cornea was incised to a length of about 2 mm at about 2 mm inside from the corneal circumference by means of an injection needle, and a sustained release pellet containing basic fibroblast growth growth factor (bFGF; bovine brain-derived, purified product; R & D Inc.) and a sustained release pellet containing the test sample were inserted side by side into the incision so that the bFGF pellet was located on the central side in the cornea. In the control group, the bFGF pellet and a sample-free pellet were inserted into the cornea. After 10 days, the cornea was observed under a stereoscopic microscope.
The sustained release pellets were prepared in the following manner. An ethylene-vinyl acetate copolymer (Takeda Chemical Industries, Ltd.) was dissolved in dichloromethane to a concentration of 8%. A 3 µl portion of the solution was air-dried on a glass dish, an aqueous solution of bFGF (250 ng) was then placed thereon and air-dried and, finally 3 µl of the above ethylene-vinyl acetate copolymer solution was placed further thereon and air-dried to give a sandwich sheet. This sandwich sheet was made round into a bFGF pellet. The test sample pellets were prepared by dissolving each sample in ethanol in a concentration of 20 µg/2 µl, mixing the solution with 6 µl of an ethylene-vinyl acetate copolymer solution, air-drying the mixed solution in a glass dish and making the thus-obtained sheet round.
Incidentally, in the Table 1 below, the inhibitory rate means the number of rats on which angiogenesis inhibitory activity was observed relative to the number of rats tested.

[2] = tested on: Human umbilical vein endothelial cells; test: inhibition of human umbilical vein endothelial cell growth (MTT); type: cell-based; settings: rFGF 2 ng/ml, 5-day culture, concentration giving 50% OD value of control; for IC50: Homo sapiens, Endothelial cell, 120 h, read-out: IC₅₀
Description: Human umbilical vein endothelial cells were isolated by perfusion of an umbilical vein with a trypsin-containing medium. The cells were cultured in sequence in GIT medium (Nihon Pharm. In.) supplemented with 2.5% fetal bovine serum and 2.0 ng/ml or recombinant human fibroblast growth factor (hereinafter simply referred to rFGF, prepared at Biotechnology Research Laboratories, Takeda Chemical Industries, Ltd.).
A suspension of human vein endothelial cells at the cell density of 2 x 10³ (100 µl) was seeded on 96-well incubation plate (Nunc, 1-67008), and incubation was conducted in a gas-controlled thermostat vessel. […] After 5-day culture, the medium was removed by suction, 100 µl of 1 mg/ml of MTT solution [3-(4,5-dimethyl-2-thiazolyl)-2,5-diphenyl-2H-tetrazolium bromide was dissolved in the medium] was added and kept warming for 4 hours. Then, 100 µl of a 10% SDS solution (aqueous solution of sodium dodecyl sulfate) was added, and the mixture was kept warming for 5-6 hours. The cells and MTT pigment were solubilized, and the optical density ([…]) was measured using a spectrophotometer. The OD value of the control group to which no test sample was added was set as 100%, and the activity of each test sample for inhibiting endothelial cell growth was shown in Table 2 by the concentration of the test compound giving 50% OD value, i.e. IC₅₀ value.

Row | Molecule | responders at 20 µg/pellet [1] [%] | IC50 [2] [ng/mL] | Inhibitory Rate [1] | IC₅₀ [2] [ng/mL]
1 | CO[C@@H]1[C@H](NC(N)=O)CC[C@]2(CO2)[C@H]1[C@@]1(C)O[C@@H]1CC=C(C)C [Example 13, 6α-Ureido-6-desoxyfumagillol] | 100 | 0.1 (≈ 0.308 nM) | – | –
2 | CO[C@H]1[C@H]([C@@]2(C)O[C@@H]2CC=C(C)C)[C@]2(CC[C@@H]1[N+]1(C)CCCC1)CO2 [Example 20, 6β-Pyrrolidino-6-desoxyfumagillol methyl iodide] | 42.9 | – | – | –
3 | CO[C@@H]1[C@H](NC(=O)NCCCl)CC[C@]2(CO2)[C@H]1[C@@]1(C)O[C@@H]1CC=C(C)C [Example 12, 6α-[N′-(2-chloroethyl)ureido]-6-desoxyfumagillol] | – | 1.16 (≈ 3 nM) | – | –
4 | CO[C@@H]1[C@@H](N2CCCC2)CC[C@]2(CO2)[C@H]1[C@@]1(C)O[C@@H]1CC=C(C)C [Example 19, 6β-Pyrrolidino-6-desoxyfumagillol] | 66.7 | – | – | –
5 | CO[C@@H]1[C@H](N)CC[C@]2(CO2)[C@H]1[C@@]1(C)O[C@@H]1CC=C(C)C [Example 1, 6α-Amino-desoxyfumagillol] | – | 7.92 (≈ 28.1 nM) | – | –
6 | CO[C@@H]1[C@H](NC(=O)OCC(C)C)CC[C@]2(CO2)[C@H]1[C@@]1(C)O[C@@H]1CC=C(C)C [Example 7, 6α-(Isobutyloxy-carbonylamino)-6-desoxyfumagillol] | 100 | 0.17 (≈ 0.446 nM) | – | –
7 | CO[C@@H]1[C@H](NC(=O)c2ccccc2)CC[C@]2(CO2)[C@H]1[C@@]1(C)O[C@@H]1CC=C(C)C [Example 8, 6α-Benzoylamino-6-desoxyfumagillol] | 85.7 | 0.2 (≈ 0.519 nM) | – | –
8 | CO[C@@H]1[C@H](Nc2ccccc2)CC[C@]2(CO2)[C@H]1[C@@]1(C)O[C@@H]1CC=C(C)C [Example 2, 6α-Phenylamino-6-desoxyfumagillol] | 62.5 | – | – | –
9 | CO[C@@H]1[C@H](NC(C)=O)CC[C@]2(CO2)[C@H]1[C@@]1(C)O[C@@H]1CC=C(C)C [Example 5, 6α-Acetylamino-6-desoxyfumagillol] | 57.1 | 0.06 (≈ 0.186 nM) | – | –
10 | CO[C@@H]1[C@@H](N)CC[C@]2(CO2)[C@H]1[C@@]1(C)O[C@@H]1CC=C(C)C [Example 16, 6β-Amino-6-desoxyfumagillol] | 50 | 9.49 (≈ 33.7 nM) | – | –
11 | CO[C@@H]1[C@H](NC(=S)Nc2cccc3ccccc23)CC[C@]2(CO2)[C@H]1[C@@]1(C)O[C@@H]1CC=C(C)C [Example 10, 6α-[N′-(1-naphthyl)thioureido]-6-desoxyfumagillol] | 40 | 8.13 (≈ 17.4 nM) | – | –
12 | CO[C@@H]1[C@H](N(C)C(C)=O)CC[C@]2(CO2)[C@H]1[C@@]1(C)O[C@@H]1CC=C(C)C [Example 3, 6α-(Acetyl)methylamino-6-desoxyfumagillol] | 50 | 3.21 (≈ 9.51 nM) | – | –
13 | 6β-(N′-chloroacetylureido)-4′,5′-dihydro-6-desoxyfumagillol [Example 14] | – | – | 5/5 | 0.14
14 | CO[C@@H]1[C@H](NS(=O)(=O)c2ccc(C)cc2)CC[C@]2(CO2)[C@H]1[C@@]1(C)O[C@@H]1CC=C(C)C [Example 6, 6α-(p-Toluenesulfonylamino)-6-desoxyfumagillol] | 75 | 7.04 (≈ 16.2 nM) | – | –
15 | CO[C@@H]1[C@H](NC(=O)NC(=O)CCl)CC[C@]2(CO2)[C@H]1[C@@]1(C)O[C@@H]1CC=C(C)C [Example 9, 6α-(N′-chloroacetylureido)-6-desoxyfumagillol] | 100 | 0.057 (≈ 0.142 nM) | – | –
16 | CO[C@@H]1[C@H](NC(=O)Nc2cccc3ccccc23)CC[C@]2(CO2)[C@H]1[C@@]1(C)O[C@@H]1CC=C(C)C [Example 11, 6α-[N′-(1-naphthyl)ureido]-6-desoxyfumagillol] | 100 | 0.34 (≈ 0.755 nM) | – | –
